# Measurements: US20260083865A1, “PROSTATE SPECIFIC MEMBRANE ANTIGEN (PSMA) LIGANDS AND USE THEREOF” (priority 2022, published 2026)
# Numbered stars: 1 amine (or outer) side, 2 acyl side, 3 side chain; on linkers, the order of the positions; unused ones are H or OH. Bridge positions count the residues as written; N and C are the ends. Square brackets hold non-standard residues; d marks the D form. Peptide text beside a SMILES is read from it. * marks the point of attachment. Acetyl(1-DOTA-4-piperidyl) = O=C(O)CN1CCN(CC(=O)O)CCN(CC(=O)N2CCC(CC(=O)*)CC2)CCN(CC(=O)O)CC1; DOTA = O=C(O)CN1CCN(CC(=O)O)CCN(CC(=O)*)CCN(CC(=O)O)CC1; Phe(4-Cl) = N[C@@H](Cc1ccc(Cl)cc1)C(=O)O; NMeT = CN[C@H](C(=O)O)[C@@H](C)O; 4Pal = N[C@@H](Cc1ccncc1)C(=O)O; X1 = O=C(CC1CCN([*:1])CC1)[*:2]; NMeK = CN[C@@H](CCCCN)C(=O)O; Tle = CC(C)(C)[C@H](N)C(=O)O; Isovaleryl = CC(C)CC(=O)*; 4Abz = Nc1ccc(C(=O)O)cc1; Aib = CC(C)(N)C(=O)O; CO = O=C([*:1])[*:2]; NHBu = CCCCN*
# Legend:
# [1] = target: T1, PSMA-expressing C4-2 cells (Homo sapiens, UniProt Q04609); test: FACS binding assay (competition with 50 nM PSM-0183); conditions: pIC50 category of FACS binding, C4-2 cells; read-out: pIC50 [C4-2] CAT (converted)
# T1 construct: PSMA-expressing C4-2 cells (ATCC, Cat. No. CRL-3314) were cultured in RPMI-1640; host or cells: C4-2 cells
# T1 sequence (Q04609 whole entry): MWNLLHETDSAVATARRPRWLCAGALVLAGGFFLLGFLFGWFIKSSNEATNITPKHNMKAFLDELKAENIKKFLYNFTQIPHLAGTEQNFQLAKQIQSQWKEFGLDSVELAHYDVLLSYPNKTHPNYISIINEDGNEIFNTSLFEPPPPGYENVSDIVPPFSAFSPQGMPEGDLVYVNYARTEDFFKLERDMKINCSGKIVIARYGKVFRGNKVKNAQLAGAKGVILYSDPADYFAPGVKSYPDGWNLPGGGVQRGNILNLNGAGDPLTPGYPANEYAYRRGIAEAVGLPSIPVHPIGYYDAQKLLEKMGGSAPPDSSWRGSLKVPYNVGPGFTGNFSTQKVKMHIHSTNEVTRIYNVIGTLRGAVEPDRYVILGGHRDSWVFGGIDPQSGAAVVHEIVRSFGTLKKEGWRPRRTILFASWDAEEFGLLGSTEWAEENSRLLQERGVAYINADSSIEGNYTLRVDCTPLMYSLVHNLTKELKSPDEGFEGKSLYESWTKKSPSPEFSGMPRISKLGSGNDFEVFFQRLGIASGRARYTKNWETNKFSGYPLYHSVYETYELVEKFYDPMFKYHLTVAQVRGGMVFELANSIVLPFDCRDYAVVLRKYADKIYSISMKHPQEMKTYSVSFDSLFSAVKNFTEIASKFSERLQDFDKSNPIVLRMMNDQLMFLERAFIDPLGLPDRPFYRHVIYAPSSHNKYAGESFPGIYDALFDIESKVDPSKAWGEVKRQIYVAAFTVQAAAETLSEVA
# In short: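 C4-2 cells were incubated 1 h at 4 °C with 50 nM AF488-labelled peptide PSM-0183 plus increasing test compound concentrations, then washed twice in ice-cold buffer. Median fluorescence in the AF488 channel was read by flow cytometry. IC50/pIC50 was derived by 4PL fitting of MFI versus concentration.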
# [2] = target: T2, Fc-fusion protein of human PSMA (hPSMA-Fc) (Homo sapiens, UniProt Q04609); test: Surface plasmon resonance assay (Biacore T200, single cycle kinetic); format: binding; conditions: pKD category for PSMA SPR activity assay, hPSMA-Fc, 25° C.; read-out: pKD CAT (converted)
# T2 construct: purchased Acro Biosystems PSA-H5264
# T2 sequence (Q04609 44-750 limits assumed): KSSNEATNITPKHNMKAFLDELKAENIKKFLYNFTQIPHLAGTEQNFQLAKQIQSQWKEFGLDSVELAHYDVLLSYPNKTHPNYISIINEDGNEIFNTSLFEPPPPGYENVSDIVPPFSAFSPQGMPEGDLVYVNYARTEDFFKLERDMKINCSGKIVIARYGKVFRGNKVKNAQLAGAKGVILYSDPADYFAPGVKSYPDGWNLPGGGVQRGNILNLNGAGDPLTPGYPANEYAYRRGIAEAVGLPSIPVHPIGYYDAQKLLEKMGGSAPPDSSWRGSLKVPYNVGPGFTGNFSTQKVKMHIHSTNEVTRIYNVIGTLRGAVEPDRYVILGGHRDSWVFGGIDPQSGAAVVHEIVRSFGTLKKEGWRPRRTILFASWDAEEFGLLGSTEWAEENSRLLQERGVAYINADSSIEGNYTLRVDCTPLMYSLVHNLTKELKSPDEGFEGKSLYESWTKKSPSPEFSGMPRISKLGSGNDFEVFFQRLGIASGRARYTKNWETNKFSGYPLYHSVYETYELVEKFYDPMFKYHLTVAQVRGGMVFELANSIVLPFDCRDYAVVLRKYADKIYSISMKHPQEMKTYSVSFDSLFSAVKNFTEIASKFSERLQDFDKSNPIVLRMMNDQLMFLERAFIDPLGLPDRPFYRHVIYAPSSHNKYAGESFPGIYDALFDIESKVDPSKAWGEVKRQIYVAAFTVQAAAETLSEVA
# In short: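 hPSMA-Fc was captured (~1000 RU) on an Fc-binding-peptide CM5 chip, and compounds were run in single cycle kinetic mode at 25° C in HBST with 0.1% DMSO. Double-blank-corrected sensorgrams were fitted to a 1:1 Langmuir model to give KD, reported as pKD.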
SMILES,IC50 [1] [nM],Kd [2] [nM]
"C[C@@H](O)[C@H](NC(=O)[C@@H](NC(=O)[C@@H]1CSSC[C@H](NC(=O)[C@H](Cc2ccccc2)NC(=O)C(C)(C)NC(=O)[C@@H](NC(=O)c2ccc(NC(=O)CN3CCN(CC(=O)O)CCN(CC(=O)O)CCN(CC(=O)O)CC3)cc2)[C@@H](C)O)C(=O)N[C@@H](CCCCN)C(=O)N[C@@H](CCCNC(=N)N)C(=O)NC(C)(C)C(=O)N[C@@H](CC(N)=O)C(=O)N1)C(C)(C)C)C(N)=O [PSM-0448, DOTA-Pab-Thr-Aib-Phe-[Cys-Lys-Arg-Aib-Asn-Cys]-Tle-Thr-NH2] ({DOTA-4Abz}-T[Aib]FCKR[Aib]NC[Tle]T-NH2; disulfide 4-9)",< 200,< 12.6
"CC(C)CC(=O)NC(C)(C)C(=O)N[C@@H](Cc1ccccc1)C(=O)N[C@H]1CSSC[C@@H](C(=O)N[C@H](C(=O)N[C@H](C(N)=O)[C@@H](C)O)C(C)(C)C)NC(=O)[C@H](CC(N)=O)NC(=O)C(C)(C)NC(=O)[C@H](CCCNC(=N)N)NC(=O)[C@H](CCCCN)NC1=O [PSM-0450, Iva-Aib-Phe-[Cys-Lys-Arg-Aib-Asn-Cys]-Tle-Thr-NH2] (Isovaleryl-[Aib]FCKR[Aib]NC[Tle]T-NH2; disulfide 3-8)",< 200,< 12.6
"CC(=O)N[C@H](C(=O)NC(C)(C)C(=O)N[C@@H](Cc1ccccc1)C(=O)N[C@H]1CSSC[C@@H](C(=O)N[C@H](C(=O)N[C@H](C(N)=O)[C@@H](C)O)C(C)(C)C)NC(=O)[C@H](CC(N)=O)NC(=O)C(C)(C)NC(=O)[C@H](CCCNC(=N)N)NC(=O)[C@H](CCCCN)N(C)C1=O)[C@@H](C)O [PSM-0451, Ac-Thr-Aib-Phe-[Cys-Nmk-Arg-Aib-Asn-Cys]-Tle-Thr-NH2] (Ac-T[Aib]FC[NMeK]R[Aib]NC[Tle]T-NH2; disulfide 4-9)",200 to 1260,12.6 to 126

# Other lines, results leading:
IC50 [1] [nM],Kd [2] [nM],SMILES
< 200,< 12.6,"CCCCNC(=O)N[C@H](C(=O)NC(C)(C)C(=O)N[C@@H](Cc1ccc(Cl)cc1)C(=O)N[C@H]1CSSC[C@@H](C(=O)N[C@H](C(=O)N[C@H](C(=O)N[C@H](CCCCNC(=O)CC2CCN(C(=O)CN3CCN(CC(=O)O)CCN(CC(=O)O)CCN(CC(=O)O)CC3)CC2)C(N)=O)[C@@H](C)O)C(C)(C)C)NC(=O)[C@H](CC(N)=O)NC(=O)C(C)(C)NC(=O)[C@H](CCCNC(=N)N)NC(=O)[C@H](CCCCN)NC1=O)[C@@H](C)O [PSM-0452, nBuCAyl-Thr-Aib-Pcf-[Cys-Lys-Arg-Aib-Asn-Cys]-Tle-Thr-lys (DOTA-Cmp)-NH2] ({NHBu-CO}-T[Aib][Phe(4-Cl)]CKR[Aib]NC[Tle]T[dK](Acetyl(1-DOTA-4-piperidyl))-NH2; disulfide 4-9)"
< 200,< 12.6,"CC(=O)N[C@H](C(=O)NC(C)(C)C(=O)N[C@@H](Cc1ccccc1)C(=O)N[C@H]1CSSC[C@@H](C(=O)N[C@H](C(=O)N[C@@H](CC(C)C)C(N)=O)C(C)(C)C)NC(=O)[C@H](CC(N)=O)NC(=O)C(C)(C)NC(=O)[C@H](CCCNC(=N)N)NC(=O)[C@H](CCCCN)NC1=O)[C@@H](C)O [PSM-0453, Ac-Thr-Aib-Phe-[Cys-Lys-Arg-Aib-Asn-Cys]-Tle-Leu-NH2] (Ac-T[Aib]FCKR[Aib]NC[Tle]L-NH2; disulfide 4-9)"
1260 to 3160,126 to 501,"C[C@@H](O)[C@H](NC(=O)[C@@H](NC(=O)[C@@H]1CSSC[C@H](NC(=O)[C@H](Cc2ccncc2)NC(=O)C(C)(C)NC(=O)[C@@H](NC(=O)CC2CCN(C(=O)CN3CCN(CC(=O)O)CCN(CC(=O)O)CCN(CC(=O)O)CC3)CC2)[C@@H](C)O)C(=O)N[C@@H](CCCCN)C(=O)N[C@@H](CCCNC(=N)N)C(=O)NC(C)(C)C(=O)N[C@@H](CC(N)=O)C(=O)N1)C(C)(C)C)C(N)=O [PSM-0454, DOTA-Cmp-Thr-Aib-Ppa-[Cys-Lys-Cit-Aib-Asn-Cys]-Tle-Thr-NH2] ({DOTA}-[X1]T[Aib][4Pal]CKR[Aib]NC[Tle]T-NH2; disulfide 5-10)"
200 to 1260,126 to 501,"C[C@H](NC(=O)[C@H]([C@@H](C)O)N(C)C(=O)CC1CCN(C(=O)CN2CCN(CC(=O)O)CCN(CC(=O)O)CCN(CC(=O)O)CC2)CC1)C(=O)N[C@@H](Cc1ccc(Cl)cc1)C(=O)N[C@H]1CSSC[C@@H](C(=O)N[C@H](C(=O)N[C@H](C(N)=O)[C@@H](C)O)C(C)(C)C)NC(=O)[C@H](CC(N)=O)NC(=O)C(C)(C)NC(=O)[C@H](CCCNC(=N)N)NC(=O)[C@H](CCCCN)NC1=O [PSM-0455, DOTA-Cmp-Nmt-Ala-Pcf-[Cys-Lys-Arg-Aib-Asn-Cys]-Tle-Thr-NH2] ({DOTA}-[X1][NMeT]A[Phe(4-Cl)]CKR[Aib]NC[Tle]T-NH2; disulfide 5-10)"
